Test results: US11105794B2, “In vitro nephrotoxicity screening assay” (Hoffmann-La Roche Inc., priority 2016, dated 2021)
l = locked nucleic acid (LNA); d = 2'-deoxy (DNA)

Legend:
PTEC-TERT1 cells [1] = test system: PTEC-TERT1 cells
Description: (§4) Prior to treatment with oligonucleotides the PTEC-TERT1 were seeded into collagen I-coated 96-well plates (Corning, 356407) at a density of 40 000 and 20 000 cells/well respectively in PTEC medium and grown until confluence.
(§5) Oligonucleotides were dissolved in PBS and added to the cell culture at the given concentration, such as 10, 30 or 100 μM. The total volume of each well was 100 μl. PBS served as vehicle control.
(§6) When extra cellular markers, like EGF and KIM-1, were analyzed following the oligonucleotide treatment the medium was collected and stored at −20° C. until further analysis. […] The collected medium was stored at −20° C.
(§7) For analysis of human EGF, cell supernatants were thawed on ice, diluted 1:2 and 1:10 in sample dilution buffer (BioRad catalog # M60-009RDPD) and analyzed by Luminex®-based ELISA using human EGF beads (Bio-Plex Pro™ Human Cancer Biomarker Panel 2 EGF Set#171BC603M), or followed by analysis using the Bio-Plex® 200 Systems (BioRad) according to the manufacturer's instructions. Data are reported as mean concentrations and standard deviations of triplicate wells.

PTEC-TERT1 cells [2] = test system: PTEC-TERT1 cells; remark: listed apart in the source
Description: as §4, §5, §6
For analysis of human KIM-1, cell supernatants were thawed on ice, diluted 1:2 and 1:10 in sample dilution buffer (BioRad catalog # M60-009RDPD) and analyzed by Luminex®-based ELISA using human KIM-1 beads (Human Kidney Injury panel 4, Millipore HKI4MAG-99K-KIM1) followed by analysis using the Bio-Plex® 200 Systems (BioRad) according to the manufacturer's instructions. Data are reported as mean concentrations and standard deviations of triplicate wells. An increase of KIM-1 levels above 200% was considered as predictive for nephrotoxicity.

[3] = test system: Wistar Han Crl:WI(Han) male rats; test: In vivo nephrotoxicity in rats
Description: Purpose bred Wistar Han Crl:WI(Han) male rats obtained from Charles River Laboratories at 7 to 8 weeks of age were divided into groups of 4 (table 1, exp. A) or 8 (table 1, exp. B) based on body weight and acclimatized for at least 5 days before dosing. The animals were housed under standard environmental conditions ([…], relative humidity 50±20%, a light/dark cycle 12 h/12 h, pelleted food and water ad libitum), were offered enriched environment in an AAALAC accredited facility and were regularly and carefully monitored. All procedures were in accordance with the respective local regulations and according to the animal permissions granted by the Institutional Animal Care and Use Committee. Test compounds were formulated in isotonic sterile saline, sterile filtered (0.22 μm), and dosed at 40 mg/kg on days 1 and 8 (2.5 ml/kg) in the intrascapular region. Control group animals received saline as vehicle control. On day 15 animals were orally administered tap water (10 ml/kg), and urine was collected on ice for 6 hours in metabolic cages. […] On day 15 the rats were sacrificed by an intraperitoneal injection of pentobarbital and exsanguinated. Kidney cortex samples were collected and fixed by immersion in 10% neutral buffered formalin, embedded in paraffin, sectioned to 5 μm and stained with hematoxylin and eosin (H&). The H&E sections were then scanned at 20× magnification using an Aperio ScanScope AT™ (Leica Biosystems) scanner and pictures were then captured via ImageScope™ software from the scanned images. One or more of the following parameters were assessed kidney weight, serum creatinine, urine protein, KIM-1 protein in urine, KIM-1 mRNA, kidney degeneration/regeneration and relative tubulotoxicity grade.

PTEC-TERT1 cells [4] = test: Morphological changes of PTEC-TERT1 cells upon oligonucleotide treatment; assay type: cell-based, human; details: 100 μM oligonucleotide, 7 days, bright field microscopy, vs saline
Description: PTEC-TERT1 cells were cultures as described in the “Materials and methods” section. To mimic the physiological exposure of renal tubules to circulating naked oligonucleotide (i.e. without assistance of delivery technology, herein termed gymnosis or gymnotic delivery), confluent monolayers of PTEC-TERT1 cells were exposed to an aqueous solution of 100 μM oligonucleotide. The medium was replaced every three days including 100 μM fresh oligonucleotide in the fresh medium.
After 7 days of treatment the morphological alterations in the treated cell cultures were investigated under bright field microscopy.

A549 cells [5] = test: EGF assay, A549 cells transfected with oligonucleotide; assay type: cell-based, human; details: A549, 48 hours after transfection;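 also: values as percent of saline control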
Description: (§1) A549 cells (ATCC CCL-185) were cultivated according to the manufacturer's instructions in A549 medium [F-12K Nut Mix (Gibco, 21127-022), 1% penicillin/streptomycin (Gibco: 15140-122), 10% FBS (Gibco 16000-044)].
(§2) Prior to treatment with oligonucleotides the A549 cells were seeded in 96 well plates at 3′000 cells per well in A549 regular medium and grown until 60% confluence. […]
(§3) A549 were cultivated as described in the “Materials and methods” section. At after at 50-60% confluence the oligonucleotides were transfected into the cells using 0.5 μl Lipofectamin (Invitrogen, 11668-019) in 25 μl OptiMEM® (GIBCO 31985062) and 1 ng or 10 ng oligonucleotide in the same volume OptiMEM. The cells were incubated over night at 37° C. The medium was changed using A459 regular medium+10 ng/ml EGF. 48 hours after transfection the medium was collected for EGF measurements and the cells were harvested for ATP measurements.

[6] = test system: Primary human hepatocytes; test: EGF assay, culture media of primary human hepatocytes; assay type: cell-based; details: 10 ng/ml EGF in medium;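 also: values as percent of saline vehicle control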
Description: Cryopreserved human hepatocytes were suspended in William's Medium E (WME) without phenol red (Sigma W-1878) supplemented with 10% fetal calf serum, penicillin (100 U/ml), streptomycin (0.1 mg/ml) at a density of approx. 1×10^6 cells/ml and seeded into collagen-coated 96-well plates (Becton Dickinson AG, Allschwil, Switzerland) at a density of 0.4×10^5 cells/well. Cells were pre-cultured for 3 to 4 h allowing for attachment to cell culture plates before start of treatment with oligonucleotides.
Before oligonucleotide treatment the seeding medium was replaced by 90 μl of serum free WME.
The total volume of each well was 100 μl. PBS served as vehicle control.
Human primary hepatocytes were cultivated as described in the “Materials and methods” section with addition of 10 ng/ml of EGF to the medium. At confluence the cells were treated with oligonucleotide as described in the “Materials and methods” section, in concentrations of 10 or 100 μM.
The medium was obtained at day 3, and the EGF level was measured according to the assay described in the “Materials and methods” section.

A549 cells [7] = test: Intracellular ATP assay, A549 cells transfected with oligonucleotide; assay type: cell-based, human; details: A549, 48 hours after transfection;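 also: ATP as percent of saline control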
Description: as §1, §2
Each sample was tested in triplicate.
as §3

[8] = test system: Human primary proximal tubule epithelial cells (PTEC); test: EGF assay, supernatant of primary PTEC cells
Description: Prior to treatment with oligonucleotides the primary PTEC cells were seeded into collagen I-coated 96-well plates (Corning, 356407) at a density of 40 000 and 20 000 cells/well respectively in PTEC medium and grown until confluence.
as §5, §6
For analysis of human EGF, cell supernatants were thawed on ice, diluted 1:2 and 1:10 in sample dilution buffer (BioRad catalog # M60-009RDPD) and analyzed by Luminex®-based ELISA using human EGF beads (Bio-Plex Pro™ Human Cancer Biomarker Panel 2 EGF Set#171BC603M), or followed by analysis using the Bio-Plex® 200 Systems (BioRad) according to the manufacturer's instructions. Data are reported as mean concentrations and standard deviations of triplicate wells. An increase of EGF levels above 200% was considered as predictive for nephrotoxicity.

PTEC-TERT1 cells [9] = test: EGF assay, supernatant of PTEC-TERT1 cells
Description: as §4, §5, §6, §7

PCSK9 mRNA = test: Target knock down (PCSK9 mRNA levels) in PTEC-TERT1 cells; assay type: cell-based, human; details: normalized to PPIB
Description: For assessment of the target knock down (PCSK9 mRNA levels) total mRNA was extracted from the cells adding 100 μl of 1× RNA lysis mixture (QuantiGene® Sample Processing Kit, QS0101) directly into the wells according to the manufacturer's instructions. RNA lysis mixtures were kept at −80° C. until analysis. For gene expression analysis, 20 μl of lysates were mixed with an mRNA-capture magnetic beads sets (Panomics QuantiGene® Plex Set catalog #12697), incubated overnight, processed for branched DNA amplification and analyzed according to the manufacturer's instructions (Panomics QuantiGene® Plex Assay kit, QP1015). The PPIB probe was used as housekeeping gene for normalization. Average Fluoresence Intensity (FI) and standard deviation of 3 biological replicates were calculated and normalized on vehicle control. The results are shown in table 11, and represent the average of three identical treatments.

[10] = PTEC-TERT1, Day 3, 11 μM (Table 3)
[11] = PTEC-TERT1, Day 3, 33 μM (Table 3)
[12] = PTEC-TERT1, Day 3, 100 μM (Table 3)
[13] = PTEC-TERT1, Day 7, 11 μM (Table 3)
[14] = PTEC-TERT1, Day 7, 33 μM (Table 3)
[15] = PTEC-TERT1, Day 7, 100 μM (Table 3)
[16] = PTEC-TERT1, Day 10, 11 μM (Table 3)
[17] = PTEC-TERT1, Day 10, 33 μM (Table 3)
[18] = PTEC-TERT1, Day 10, 100 μM (Table 3)

Row | Substance | EGF (A549 cells [5]; 1 ng oligonucleotide) | EGF (A549 cells [5]; 10 ng oligonucleotide) | EGF ([6]; day 3, 10 μM) | EGF ([6]; day 3, 100 μM) | ATP (A549 cells [7]; 1 ng oligonucleotide) | ATP (A549 cells [7]; 10 ng oligonucleotide) | EGF (PTEC-TERT1 cells [9]; [10]) | EGF (PTEC-TERT1 cells [9]; [11]) | EGF (PTEC-TERT1 cells [9]; [12]) | EGF (PTEC-TERT1 cells [9]; [13]) | EGF (PTEC-TERT1 cells [9]; [14]) | EGF (PTEC-TERT1 cells [9]; [15]) | EGF (PTEC-TERT1 cells [9]; [16]) | EGF (PTEC-TERT1 cells [9]; [17]) | EGF (PTEC-TERT1 cells [9]; [18]) | also measured
1 | Compound 20-1: antisense oligonucleotide comprising 2′-O-methoxyethyl-RNA (MOE) modifications, targeting sodium-glucose co-transporter 2 (SGLT2), SEQ ID NO 20 (GGCATGAGCTTC; MOE modifications, pattern not given here) |  |  |  |  |  |  |  |  |  |  |  |  |  |  |  | prediction of in vivo nephrotoxicity with EGF as biomarker (PTEC-TERT1 cells [1]): could be predicted; predictive KIM-1 elevation (PTEC-TERT1 cells [2]): observed; In vivo nephrotoxicity / in vivo grade of toxicity ([3]; 40 mg/kg on days 1 and 8, assessed day 15): low/medium
2 | CGTcagtatgcgAATc (CGTCAGTATGCGAATC; chemistry not given here) [Compound 1-1] | 69 % saline | 75 % saline | 123 % saline | 159 % saline | 89 % saline | 100 % saline | 145 % saline | 214 % saline | 137 % saline | 94 % saline | 122 % saline | 135 % saline | 32 % saline | 41 % saline | 59 % saline | morphological changes (PTEC-TERT1 cells [4]): did not show any morphological changes; EGF ([8]; Day 3, 3 μM): 95 % saline; EGF ([8]; Day 3, 10 μM): 99 % saline; EGF ([8]; Day 3, 30 μM): 112 % saline; EGF ([8]; Day 3, 100 μM): 120 % saline; EGF ([8]; Day 6, 3 μM): 62 % saline; EGF ([8]; Day 6, 10 μM): 71 % saline; EGF ([8]; Day 6, 30 μM): 77 % saline; EGF ([8]; Day 6, 100 μM): 98 % saline; EGF (PTEC-TERT1 cells [9]; PTEC-TERT1, Day 3, 3 μM (Table 2)): 88 % saline; EGF (PTEC-TERT1 cells [9]; PTEC-TERT1, Day 3, 10 μM (Table 2)): 93 % saline; EGF (PTEC-TERT1 cells [9]; PTEC-TERT1, Day 3, 30 μM (Table 2)): 108 % saline; EGF (PTEC-TERT1 cells [9]; PTEC-TERT1, Day 3, 100 μM (Table 2)): 119 % saline; EGF (PTEC-TERT1 cells [9]; PTEC-TERT1, Day 6, 3 μM (Table 2)): 124 % saline; EGF (PTEC-TERT1 cells [9]; PTEC-TERT1, Day 6, 10 μM (Table 2)): 152 % saline; EGF (PTEC-TERT1 cells [9]; PTEC-TERT1, Day 6, 30 μM (Table 2)): 180 % saline; EGF (PTEC-TERT1 cells [9]; PTEC-TERT1, Day 6, 100 μM (Table 2)): 172 % saline
3 | AATgctacaaaaCCCA (antisense AATGCTACAAAACCCA; sugars from the 5' end l3 d9 l4, backbone and methylation of C not given here) [Compound 2-1] | 80 % saline | 161 % saline | 122 % saline | 211 % saline | 96 % saline | 59 % saline | 135 % saline | 192 % saline | 172 % saline | 69 % saline | 88 % saline | 117 % saline | 47 % saline | 63 % saline | 154 % saline | PCSK9 mRNA (PCSK9 mRNA; PTEC-TERT1, EGF 0 ng/ml in medium): 1.73 % of saline; PCSK9 mRNA (PCSK9 mRNA; PTEC-TERT1, EGF 10 ng/ml in medium): 1.02 % of saline; In vivo nephrotoxicity / in vivo grade of toxicity ([3]; 40 mg/kg on days 1 and 8, assessed day 15, 40 mg/kg): low and Low
